Assay results from paper PMC8624133, “10th Trends in Medical Mycology Held on 8 to 11 October 2021, Aberdeen, Scotland, Organized by the European Confederation of Medical Mycology (ECMM)” (Journal of Fungi, 2021).
In brackets after ≈: the same amount, converted by molar mass. Like-named read-outs stand apart in the source and are kept apart here.

Columns and labels:
[1] = tested on: Cryptococcus bacillisporus (AFLP5/VGIII); assay: Treatment of a grey parrot with cryptococcosis; format: in vivo, grey parrot (Psittacus erithacus); details: in drinking water, 600 mg per litre, after 6 months
Text: Phenotypic and molecular analysis of the isolated yeast allowed the identification of Cryptococcus bacillisporus (AFLP5/VGIII) as the cause of the infection.

C. auris = assay: Postantifungal effect (PAFE); format: cell-based, Candida auris; details: 2 and 4 mg/L, 1 h exposure, six blood isolates
Method: Materials & Methods: PAFE experiments were performed in microtitre plates, with six C. auris clinical blood isolates (Hospital La Fe, Valencia, Spain). […] Cell pellets were re-suspended in RPMI medium and added back to the microtitre plates. Sample for viable counts were taken at 0, 2, 4, 6, 8, 24 and 48 h after re-suspension, plated in triplicate onto Sabouraud dextrose agar and incubated for 24–48 h at 37 °C. Experiments were performed in duplicate for each isolate on different days. PAFE was calculated as follows: PAFE = T − C. Where “T” is the time needed by the treated fungal cultures to growth 1 log after drug removal and “C” is the time needed by the control group to growth 1 log after last washout. Additionally, maximum log reductions of time-kill and PAFE experiments were compared and used to calculate a PAFE/time-kill index to determine the percentage of cell killing that could be attributed to the PAFE.

Candida isolates = format: cell-based, Candida spp.; details: E-Test strips
Candida auris isolates = assay: microbe, parasite or virus in culture; format: cell-based; details: Candidozyma auris; […]; IQR given; read-out: median MIC
[2] = tested on: C. parapsilosis SC isolates; assay: Candidemia survey Greece, susceptibility per hospital protocol; format: cell-based, Candida parapsilosis species complex
C. parapsilosis = assay: ARIA surveillance, CLSI M27 broth microdilution; format: cell-based, Candida parapsilosis
[3] = tested on: clinical dermatophyte isolates; assay: Inhibition of dermatophyte biofilm formation; format: cell-based
Method: Materials and Methods: The study population consisted of 50 dermatophyte isolates that were collected from 2019 to 2020 from patients referred to the two mycology laboratory of Shiraz, Iran. The isolates were identified by ITS gene region sequencing. The suspension (equivalent to 0.5 McFarland) of the isolates was used to evaluate the ability of the isolates to form biofilms and also the effect of itraconazole, terbinafine and griseofulvin at concentrations of 2–32 μg/mL on inhibiting biofilm formation. Two optical microscope and a scanning electron microscope were used to study the microscopic structure of biofilms formed on the surface of 96-well plate wells.

[4] = tested on: clinical Trichophyton spp. isolates; assay: Checkerboard microdilution based on EUCAST; format: cell-based; details: for MIC: Trichophyton, read-out: geometric mean MIC, drug alone
Method: Materials & Methods: The combination has been tested against 9 terbinafine-susceptible and 7 terbinafine-resistant clinical Trichophyton spp. isolates from India. In vitro interactions were evaluated by a microdilution checkerboard technique based on the EUCAST reference method for antifungal susceptibility testing. The mode of interaction between terbinafine and itraconazole was determined by the fractional inhibitory concentration index (FICI). The FICI was interpreted as FICI ≤ 0.5 = synergy, FICI > 0.5–4 = no interaction, and FICI > 4.0 = antagonism.

Trichophyton spp. = assay: Agar-based screening method; format: cell-based; details: 0.5 McF, 5 days, 30 °C
Method: Inter-experimental variation was evaluated by testing 10 isolates on three different days. Single-centre validation: After determining the optimal conditions for the agar screening method, 112 molecularly identified Trichophyton spp. clinical isolates were tested.

[5] = Universal voriconazole prophylaxis in lung transplant recipients, retrospective; format: in vivo, human
Method: Materials & Methods: Retrospective study of all adult lung transplant recipients at Copenhagen University Hospital during 2010 to 2019. […] Failure to complete prophylaxis was defined as recieving <9 of the intented 12 weeks of prophylaxis. Liver and kidney toxicity was graded according to Common Terminology Criteria for Adverse Events (CTCAE) criteria (grades 0–4 according to degree of elevation). Grade ≥2 adverse events were classified as high. Lung biopsies were evaluated for acute rejection (grade ≥A2). Calcineurin-inhibitor (CNI) plasma-concentrations were evaluated for off-target episodes. High and low episodes were defined as ≥2 concecutive samples 20% above or below target range limits, respectively. […] Acute rejections were classified as related to low CNI if they occurred 0–30 days from low CNI. Grade ≥2 kidney toxicity was considered related to high CNI if it occurred between two days prior to high CNI to 7 days after.

[6] = tested on: A. fumigatus isolates from BAL; assay: Sensititre YeastOne Y010, read according to CLSI (2020); format: cell-based, Aspergillus fumigatus
Method: Materials & Methods: Retrospective evaluation of antifungal susceptibility for A. fumigatus isolates from bronchoalveolar lavage (BAL) fluid in pts with invasive pulmonary aspergillosis was performed. All isolates were obtained from hematological pts admitted to National Research Center for Hematology (Moscow) between 2016 and 2020. All A. fumigatus species were identified by morphology, matrix-assisted laser desorption ionization time of flight mass spectrometry. The azole-resistant strains were identified by ITS, β-tubulin, calmodulin and actine gene sequencing. […] The MIC of antifungal agents were read according to the CLSI (2020). Cyp51A was sequenced to establish the most common resistance mechanisms embedded in azole-resistant A. fumigatus.

Scedosporium apiospermum = assay: EUCAST reference method MIC; format: cell-based
Method: Case presentation: A patient presented with a bursitis of their left elbow. Six months before they were treated with lymphodepleting chemotherapy directly followed by B-cell associated CD19-specific chimeric antigen receptor (CAR) T cell therapy for recurrence of follicular lymphoma. They were considered immunocompromised, with total neutrophils and lymphocytes slightly below normal levels, absent B-cells, and a treatment associated persistent hypogammaglobulinaemia. Four weeks before presentation at our hospital they contacted their GP because of swelling and pain of their left elbow. Their GP aspirated fluid from their elbow, injected steroids and started antibiotics, but now there was recurrence of swelling and pain. Bursitis without arthritis was diagnosed by a rheumatologist and the bursa was surgically opened and drained, relieving pus. The patient was started on oral flucloxacillin and sent home. Two days later the culture of the pus from the bursa grew white colonies on a Sabouraud dextrose agar plate, showing long conidophores with large oval conidia on microscopy. […] Over the next few weeks the bursitis symptoms diminished. […] Voriconazole is considered first line treatment for Scedosporium infections. […] Eight weeks later there were no signs of bursitis and posaconazole was discontinued.

[7] = tested on: Aspergillus isolates (total); assay: Triazole resistance agar screening, four-well plate; details: RPMI agar, 1 µg/mL, 50 isolates
Method: All the isolates were identified phenotypically. […] Fungal spores were suspended in normal saline (0.85%) and adjusted to 0.5 McFarland and 50 μL was plated in each well. […] Plates were incubated at 35–37 °C for 72 h in ambient air. The presence or absence of growth was observed visually at 24 h, 48 h, and 72 h.

[8] = 7 terbinafine-resistant isolates
[9] = 9 terbinafine-susceptible isolates

C[C@@H]1[C@H](O)[C@@H](C)/C=C/C=C/C=C/C=C/C=C/C=C/C=C/[C@H](O[C@@H]2O[C@H](C)[C@@H](O)[C@H](N)[C@@H]2O)C[C@@H]2O[C@](O)(C[C@@H](O)C[C@@H](O)[C@H](O)CC[C@@H](O)C[C@@H](O)CC(=O)O[C@H]1C)C[C@H](O)[C@H]2C(=O)O [amphotericin B]
clinical response [1]: good response
PAFE (C. auris): 3.5 to 6.5 h

OC(Cn1cncn1)(Cn1cncn1)c1ccc(F)cc1F [fluconazole]
comparative effectiveness among antifungals (Candida isolates): most effective antifungal
MIC (Candida auris isolates): 48 µg/mL (≈ 157 µM)
Resistance [2]: 20%
susceptibility (C. parapsilosis; Italy): 52.4%
susceptibility (C. parapsilosis; Turkey): 76.2%
overall susceptibility (C. parapsilosis; all countries): 88.5%
susceptibility (C. parapsilosis; all countries except Italy and Turkey): 100%

CCC(C)n1ncn(-c2ccc(N3CCN(c4ccc(OCC5COC(Cn6cncn6)(c6ccc(Cl)cc6Cl)O5)cc4)CC3)cc2)c1=O (stereo not shown) [itraconazole]
IC50 ([3]; inhibition of biofilm formation, read-out: mean concentrations of IC50): 3.78 µg/mL (≈ 5.36 µM)
samples with IC50 in concentration <2 ([3]; tested at 2–32 μg/mL): 70%
MIC range, drug alone [4, 8]: 0.0625 to 0.5 µg/mL
MIC range, drug alone [4, 9]: 0.125 to 0.5 µg/mL
MIC [4, 8]: 0.19 µg/mL
MIC [4, 9]: 0.3 µg/mL
optimal agar concentration preventing growth of WT isolates (Trichophyton spp.): 1 mg/L

C[C@@H](c1ncncc1F)[C@](O)(Cn1cncn1)c1ccc(F)cc1F [voriconazole]
low CNI plasma-concentration episode related to discontinuation of voriconazole ([5]; patients of the universal prophylaxis period): 45%
failed to complete prophylaxis ([5]; receiving <9 of the intended 12 weeks, 183 patients on voriconazole prophylaxis): 62%
failure to complete prophylaxis due to hepatic toxicity ([5]; share of the 114 patients who failed to complete): 72%
isolates with elevated MIC ([6]; 2 of 35): 5.7%
MIC ([6]; Aspergillus fumigatus, BAL, read-out: elevated minimum inhibitory concentrations (MIC)): > 8 µg/mL
MIC (Scedosporium apiospermum; first isolate from bursa pus): 0.5 µg/mL (≈ 1.43 µM)
MIC (Scedosporium apiospermum; isolate two months later, under posaconazole): 1 µg/mL (≈ 2.86 µM)
isolates with growth only in voriconazole well, n (%) ([7]; 48 h): 1 (2%)
isolates with growth only in voriconazole well, n (%) ([7]; 72 h): 16 (32%)
